Laboratory results from patent US6831075B2, “Heterocyclic substituted pyrazolones” (Cephalon, Inc., priority 1999, dated 2004).

Target: T1, recombinant human baculoviral VEGFR2 cyctoplasmic domain (Homo sapiens, UniProt P35968)
T1 construct: recombinant human baculoviral VEGFR2 cyctoplasmic domain; host or cells: baculovirus expression system
Assay: VEGFR2 kinase inhibition assay (ELISA-based, time-resolved fluorescence)
Assay type: biochemical
Conditions: 1 uM compound; 30 μM ATP; read-out: VEGFR-2 kinase % inhibition @ 1 uM
Protocol: Inhibition of Vascular Endothelial Growth Factor Receptor-2 Kinase Activity
Assay were performed as described for trkA kinase below. The 96-well microtiter plate (FluoroNUNC Maxisorp) was coated with 40 μg/ml recombinant human phospholipase C-γ1/glutathione S-transferase fusion protein. Inhibition studies were performed in 100 μl assay mixtures containing 50 mM HEPES, pH 7.4, 30 μM ATP, 10 mM MnCl2, 0.1% BSA, 2% DMSO, and 1 μM of test compound. The reaction was initiated by adding prephosphorylated recombinant human baculoviral VEGFR2 cyctoplasmic domain. The reaction was allowed to proceed for 15 minutes at 37° C. The detection antibody, eurpium-labeled anti-phosphotyrosine antibody (Wallac #CR04-100), was added at 1:5000 dilution in block buffer (3% BSA in TBST).

T1 sequence (P35968 786-1356 limits assumed): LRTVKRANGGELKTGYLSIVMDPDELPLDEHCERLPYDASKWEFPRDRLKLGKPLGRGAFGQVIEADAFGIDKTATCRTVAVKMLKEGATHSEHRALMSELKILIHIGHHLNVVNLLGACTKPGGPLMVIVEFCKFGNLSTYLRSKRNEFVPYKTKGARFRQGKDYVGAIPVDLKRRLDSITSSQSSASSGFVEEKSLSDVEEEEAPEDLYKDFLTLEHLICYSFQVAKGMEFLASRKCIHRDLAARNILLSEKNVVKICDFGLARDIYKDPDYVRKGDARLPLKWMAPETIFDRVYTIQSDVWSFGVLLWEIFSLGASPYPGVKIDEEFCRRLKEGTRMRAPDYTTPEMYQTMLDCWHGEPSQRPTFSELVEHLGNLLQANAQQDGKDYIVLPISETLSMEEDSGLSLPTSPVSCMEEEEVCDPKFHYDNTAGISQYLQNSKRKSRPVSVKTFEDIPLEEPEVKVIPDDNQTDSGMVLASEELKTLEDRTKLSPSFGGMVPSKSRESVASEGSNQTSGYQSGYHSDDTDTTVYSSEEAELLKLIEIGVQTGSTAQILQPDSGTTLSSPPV

| Compound | inhibition at 1 µM [%] |
| --- | --- |
| Cc1cc(C)c(C=C2C(=O)NN=C2c2c[nH]c3ccccc23)[nH]1 [Compound 76, 4-[(3,5-dimethylpyrrol-2-yl)methylene]-3-indol-3-yl-2-pyrazolin-5-one] | 39 |
| Cc1cc(C)c(CC2C(=O)NN=C2c2c[nH]c3ccccc23)[nH]1 (centres unmarked) [Compound 77, 4-[(3,5-dimethylpyrrol-2-yl)methyl]-3-indol-3-yl-2-pyrazolin-5-one] | 21 |
